# Test results taken from patent US20260021061A1, “ARIADNE AND ANALOGS FOR THE TREATMENT OF NEUROLOGICAL AND NEUROMUSCLAR DISORDERS” (priority 2022, published 2026).
# Tests used:
# 5-HT2B = 5-HT2B (Homo sapiens, UniProt P41595); assay: Calcium flux assay; type: cell-based; conditions: read-out: Emax relative to 5-HT, calcium flux
# Experimental: Therefore, an orthogonal assay measuring calcium flux was also performed for the 5-HT2 receptors (Klein et al., 2020).
# 5-HT1F receptor = 5-HT1F receptor (Homo sapiens, UniProt P30939); assay: 5-HTome G protein activation BRET assay
# Experimental: All BRET assays were conducted using BRET2 in HEK293T cells (ATCC CRL-11268; mycoplasma-free), which were subcultured in high-glucose DMEM (VWR) supplemented with 10% FBS (Life Technologies).
# Constructs in G protein-dissociation BRET assays were derived from the codon-optimized Tango pcDNA3.1 library (Addgene) with V2tail/TEV/tTA encoding regions deleted to yield “de-Tango” constructs. […] All Gα-Rluc8, Beta, and GFP2-γ constructs were derived from the TRUPATH pcDNA5/FRT/TO library (Addgene). […]
# On the day of the assay, plates were decanted and 20 uL of drug buffer per well (1×HBSS, 20 mM HEPES, pH 7.4) was added using a Multidrop (ThermoFisher Scientific), and plates were allowed to equilibrate at 37° C. in a humidified incubator before receiving drug stimulation. […] Before reading, addition of coelenterazine 400a (5 uM final concentration; Nanolight Technology) was performed by the [sequence]. Immediately after, plates were read at 400 nm Rluc and fluorescent GFP2 emission at 510 nm for BRET2 at 0.8 second per well using a PheraStarFSX (BMB Lab Tech).
# The BRET ratios of 510/400 luminescence were calculated per well and were plotted as a function of drug concentration using Graphpad Prism 5 or 9 (Graphpad Software Inc., San Diego, CA). […]
# patients = conditions: cited from earlier work
# mice = assay: Elevated plus maze (EPM); type: in vivo, mouse; conditions: 30 minutes and 4 hours post single s.c. injection
# Experimental: FIGS. 7A-D Effect of Ariadne in behavioral conflict paradigms. (a) Survival plot of effect of (R)-Ariadne (10 mg/kg) on latency to feed in the novelty suppressed feeding (NSF) test 7 days post a single drug administration. (b) Effect of 6 mg/kg and 10 mg/kg (R)-Ariadne on latency to feed in the novelty suppressed feeding (NSF) test 7 days post a single drug administration. (c) Effect of (R)-Ariadne and (±)-DOPR on the time spent in the open vs closed arms and (d) corresponding arm entries 30 minutes and 4 hours post a single subcutaneous injection.
# [1] = test system: Calcium Channel L-Type, Dihydropyridine; assay: SafetyScreen44 214600; type: binding, rat; conditions: 10 μM; [3H]Nitrendipine; cerebral cortex
# Experimental: (§1) A broad screen of 44 molecular targets (SafetyScreen44, Eurofins-Panlabs) for Ariadne were performed, which includes G protein-coupled receptors, steroid nuclear receptors, ion channels, neurotransmitter transporters, and metabolic and signaling enzymes. Only two molecular targets, 5-HT2A and 5-HT2B receptors, emerged above the positive hit threshold, defined as 50% displacement of standard radioligands by 10 uM concentration of Ariadne (FIG. 1b, and Table 1).
# (§2) For species, “H”=human, “R”=rat. Test compound screened at all targets at concentration of 10 μM.
# [2] = target: T1, Serotonin (5-Hydroxytryptamine) 5-HT3 (Homo sapiens, UniProt P46098); assay: SafetyScreen44 271910; type: binding; conditions: 10 μM; [3H]GR-65630; recombinant
# T1 construct: purchased Eurofins-Panlabs (contract screen SafetyScreen44) assay ID 271910
# T1 sequence (P46098 24-478): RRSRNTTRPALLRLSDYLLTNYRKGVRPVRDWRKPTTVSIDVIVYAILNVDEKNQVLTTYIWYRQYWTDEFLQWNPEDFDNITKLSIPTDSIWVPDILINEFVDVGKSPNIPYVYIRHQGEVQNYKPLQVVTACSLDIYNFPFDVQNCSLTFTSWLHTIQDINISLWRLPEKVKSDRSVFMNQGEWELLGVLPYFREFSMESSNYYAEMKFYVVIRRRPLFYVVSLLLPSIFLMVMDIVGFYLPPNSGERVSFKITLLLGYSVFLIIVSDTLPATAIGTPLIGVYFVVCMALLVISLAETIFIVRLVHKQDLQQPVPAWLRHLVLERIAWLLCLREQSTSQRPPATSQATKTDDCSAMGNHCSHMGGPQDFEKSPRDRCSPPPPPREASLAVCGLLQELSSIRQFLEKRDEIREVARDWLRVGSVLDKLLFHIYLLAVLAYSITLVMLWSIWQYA
# Experimental: as §1, §2
# Muscarinic M3 = target: T2, Muscarinic M3 (Homo sapiens, UniProt P20309); assay: SafetyScreen44 252810; type: binding; conditions: 10 μM; [3H]N-Methylscopolamine; recombinant
# T2 construct: purchased Eurofins-Panlabs (contract screen SafetyScreen44) assay ID 252810
# T2 sequence (P20309 whole entry): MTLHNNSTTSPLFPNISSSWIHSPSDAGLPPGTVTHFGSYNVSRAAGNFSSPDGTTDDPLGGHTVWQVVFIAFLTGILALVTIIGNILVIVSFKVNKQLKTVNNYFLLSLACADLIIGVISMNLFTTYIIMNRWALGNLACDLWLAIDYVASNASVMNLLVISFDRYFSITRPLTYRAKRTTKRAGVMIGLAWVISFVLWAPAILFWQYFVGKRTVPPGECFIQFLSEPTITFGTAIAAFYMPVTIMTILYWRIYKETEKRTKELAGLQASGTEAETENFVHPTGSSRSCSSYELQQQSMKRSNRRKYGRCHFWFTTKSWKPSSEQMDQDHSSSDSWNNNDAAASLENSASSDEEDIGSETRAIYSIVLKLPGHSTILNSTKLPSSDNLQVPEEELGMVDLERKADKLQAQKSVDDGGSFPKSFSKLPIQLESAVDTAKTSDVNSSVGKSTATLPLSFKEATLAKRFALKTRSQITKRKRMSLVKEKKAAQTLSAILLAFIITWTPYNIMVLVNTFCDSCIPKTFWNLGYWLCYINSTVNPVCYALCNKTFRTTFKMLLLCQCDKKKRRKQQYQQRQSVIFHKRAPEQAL
# Experimental: as §1, §2
# Adrenergic alpha1A = target: T3, Adrenergic alpha1A (Homo sapiens, UniProt P35348); assay: SafetyScreen44 203110; type: binding; conditions: 10 μM; [3H]Prazosin; recombinant
# T3 construct: Eurofins-Panlabs (contract screen) 203110
# T3 sequence (P35348 whole entry): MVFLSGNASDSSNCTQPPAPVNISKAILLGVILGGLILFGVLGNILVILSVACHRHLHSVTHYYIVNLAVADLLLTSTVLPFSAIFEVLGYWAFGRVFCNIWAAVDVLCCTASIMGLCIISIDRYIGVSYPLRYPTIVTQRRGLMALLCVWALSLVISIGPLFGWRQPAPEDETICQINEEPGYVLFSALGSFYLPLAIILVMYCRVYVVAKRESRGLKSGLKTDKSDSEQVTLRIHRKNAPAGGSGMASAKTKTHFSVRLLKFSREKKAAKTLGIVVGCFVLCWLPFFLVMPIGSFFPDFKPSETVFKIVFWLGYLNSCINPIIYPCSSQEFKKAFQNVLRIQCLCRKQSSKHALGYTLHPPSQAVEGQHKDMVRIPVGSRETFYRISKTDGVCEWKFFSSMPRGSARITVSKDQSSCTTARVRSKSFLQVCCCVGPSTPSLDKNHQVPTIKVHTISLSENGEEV
# Experimental: as §1, §2
# Phosphodiesterase PDE4D2 = target: T4, Phosphodiesterase PDE4D2 (Homo sapiens, UniProt Q08499); assay: SafetyScreen44 154420; type: biochemical; conditions: 10 μM; FAM-cAMP; recombinant
# T4 construct: Eurofins-Panlabs (contract screen) 154420
# Experimental: as §1, §2
# Glucocorticoid = target: T5, Glucocorticoid (Homo sapiens, UniProt P04150); assay: SafetyScreen44 232030; type: binding; conditions: 10 μM; [3H]Dexamethasone; recombinant
# T5 construct: Eurofins-Panlabs (contract screen) 232030
# Experimental: as §1, §2
# Androgen (Testosterone) = target: T6, Androgen (Testosterone) (Homo sapiens, UniProt P10275, T878A); assay: SafetyScreen44 206000; type: binding; conditions: 10 μM; [3H]Methyltrienolone; LNCaP clone FGC cells
# T6 construct: Eurofins-Panlabs (contract screen) 206000
# T6 sequence (P10275 whole entry T878A): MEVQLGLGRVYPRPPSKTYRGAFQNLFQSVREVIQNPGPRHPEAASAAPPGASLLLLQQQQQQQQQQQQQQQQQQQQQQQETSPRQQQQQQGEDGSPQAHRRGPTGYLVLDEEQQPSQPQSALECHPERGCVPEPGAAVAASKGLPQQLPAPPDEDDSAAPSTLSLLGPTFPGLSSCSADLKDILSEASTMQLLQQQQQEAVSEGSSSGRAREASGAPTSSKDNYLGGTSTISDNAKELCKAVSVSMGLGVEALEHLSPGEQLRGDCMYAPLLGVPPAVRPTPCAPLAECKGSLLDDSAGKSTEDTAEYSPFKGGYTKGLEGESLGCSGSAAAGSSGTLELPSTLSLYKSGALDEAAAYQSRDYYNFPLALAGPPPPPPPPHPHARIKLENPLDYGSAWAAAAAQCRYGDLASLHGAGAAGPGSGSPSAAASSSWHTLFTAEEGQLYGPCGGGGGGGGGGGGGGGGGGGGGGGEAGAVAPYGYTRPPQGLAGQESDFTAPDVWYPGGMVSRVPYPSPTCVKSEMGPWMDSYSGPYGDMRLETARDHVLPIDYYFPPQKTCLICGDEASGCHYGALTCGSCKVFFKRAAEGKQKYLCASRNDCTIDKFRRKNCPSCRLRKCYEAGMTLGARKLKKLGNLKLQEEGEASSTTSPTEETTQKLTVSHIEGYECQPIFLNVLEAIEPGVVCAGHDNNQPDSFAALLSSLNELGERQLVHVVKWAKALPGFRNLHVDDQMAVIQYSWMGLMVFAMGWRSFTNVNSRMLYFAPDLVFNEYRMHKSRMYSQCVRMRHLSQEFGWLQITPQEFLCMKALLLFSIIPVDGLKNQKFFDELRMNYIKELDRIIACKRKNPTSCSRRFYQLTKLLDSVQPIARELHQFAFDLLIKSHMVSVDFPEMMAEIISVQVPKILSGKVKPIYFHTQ
# Experimental: as §1, §2
# [3] = target: T7, Serotonin (5-Hydroxytryptamine) 5-HT1A (Homo sapiens, UniProt P08908); assay: SafetyScreen44 271110; type: binding; conditions: 10 μM; [3H]8-OH-DPAT; recombinant
# T7 construct: purchased Eurofins-Panlabs (contract screen SafetyScreen44) assay ID 271110
# T7 sequence (P08908 whole entry): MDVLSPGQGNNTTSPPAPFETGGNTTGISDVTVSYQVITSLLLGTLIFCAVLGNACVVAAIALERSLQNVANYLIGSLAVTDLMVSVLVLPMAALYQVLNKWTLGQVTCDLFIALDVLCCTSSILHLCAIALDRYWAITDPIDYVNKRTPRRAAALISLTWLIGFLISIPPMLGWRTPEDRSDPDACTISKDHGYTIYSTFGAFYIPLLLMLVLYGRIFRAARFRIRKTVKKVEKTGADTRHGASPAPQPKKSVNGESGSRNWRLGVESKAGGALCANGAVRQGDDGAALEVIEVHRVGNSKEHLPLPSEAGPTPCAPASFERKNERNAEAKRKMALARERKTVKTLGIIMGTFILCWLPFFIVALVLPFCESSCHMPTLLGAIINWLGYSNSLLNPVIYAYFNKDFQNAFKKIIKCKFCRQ
# Experimental: as §1, §2
# Muscarinic M1 = target: T8, Muscarinic M1 (Homo sapiens, UniProt P11229); assay: SafetyScreen44 252610; type: binding; conditions: 10 μM; [3H]N-Methylscopolamine; recombinant
# T8 construct: purchased Eurofins-Panlabs (contract screen SafetyScreen44) assay ID 252610
# Experimental: as §1, §2
# [4] = target: T9, Cholinesterase, Acetyl, ACES (Homo sapiens, UniProt P22303); assay: SafetyScreen44 104010; type: biochemical; conditions: 10 μM; substrate Acetylthiocholine; recombinant
# T9 construct: Eurofins-Panlabs (contract screen) 104010
# Experimental: as §1, §2
# Endothelin ETA = target: T10, Endothelin ETA (Homo sapiens, UniProt P25101); assay: SafetyScreen44 224010; type: binding; conditions: 10 μM; [125I]Endothelin-1; recombinant
# T10 construct: Eurofins-Panlabs (contract screen) 224010
# Experimental: as §1, §2
# Adrenergic alpha2A = target: T11, Adrenergic alpha2A (Homo sapiens, UniProt P08913); assay: SafetyScreen44 203630; type: binding; conditions: 10 μM; [3H]Rauwolscine; recombinant
# T11 construct: Eurofins-Panlabs (contract screen) 203630
# T11 sequence (P08913 whole entry): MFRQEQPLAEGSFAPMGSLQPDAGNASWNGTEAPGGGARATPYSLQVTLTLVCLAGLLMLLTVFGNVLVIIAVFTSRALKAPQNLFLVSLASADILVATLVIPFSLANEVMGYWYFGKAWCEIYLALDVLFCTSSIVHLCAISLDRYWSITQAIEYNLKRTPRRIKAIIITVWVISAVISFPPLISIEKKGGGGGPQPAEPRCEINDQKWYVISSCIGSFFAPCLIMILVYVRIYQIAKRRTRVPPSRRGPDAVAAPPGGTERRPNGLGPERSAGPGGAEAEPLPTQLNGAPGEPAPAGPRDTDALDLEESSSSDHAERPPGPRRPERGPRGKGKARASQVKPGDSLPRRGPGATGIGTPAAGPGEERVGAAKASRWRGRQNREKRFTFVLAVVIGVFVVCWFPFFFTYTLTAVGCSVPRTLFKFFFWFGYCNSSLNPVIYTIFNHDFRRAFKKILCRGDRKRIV
# Experimental: as §1, §2
# [5] = test system: GABAA, Flunitrazepam, Central; assay: SafetyScreen44 226600; type: binding, rat; conditions: 10 μM; [3H]Flunitrazepam; brain (minus cerebellum)
# Experimental: as §1, §2
# [6] = target: T12, Serotonin (5-Hydroxytryptamine) 5-HT2B (Homo sapiens, UniProt P41595); assay: SafetyScreen44 271700; type: binding; conditions: 10 μM, [3H]Lysergic acid diethylamide (LSD), recombinant
# T12 construct: purchased Eurofins-Panlabs (contract screen SafetyScreen44) assay ID 271700
# T12 sequence (P41595 whole entry): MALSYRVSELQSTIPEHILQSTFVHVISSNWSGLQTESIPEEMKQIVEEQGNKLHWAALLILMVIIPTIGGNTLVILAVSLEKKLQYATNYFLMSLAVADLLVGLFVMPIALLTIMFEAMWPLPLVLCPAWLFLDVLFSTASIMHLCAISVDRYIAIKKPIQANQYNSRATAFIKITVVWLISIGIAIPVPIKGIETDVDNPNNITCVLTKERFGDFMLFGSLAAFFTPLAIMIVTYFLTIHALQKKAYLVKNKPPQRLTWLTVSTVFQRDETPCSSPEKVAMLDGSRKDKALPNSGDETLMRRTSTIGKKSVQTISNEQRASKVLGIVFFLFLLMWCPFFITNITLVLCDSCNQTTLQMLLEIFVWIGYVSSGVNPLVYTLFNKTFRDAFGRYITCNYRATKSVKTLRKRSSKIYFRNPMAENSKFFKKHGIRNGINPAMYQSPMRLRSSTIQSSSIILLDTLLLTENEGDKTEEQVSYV
# Experimental: as §1, §2
# Cyclooxygenase COX-2 = target: T13, Cyclooxygenase COX-2 (Homo sapiens, UniProt P35354); assay: SafetyScreen44 118030; type: biochemical; conditions: 10 μM; Arachidonic acid; recombinant
# T13 construct: Eurofins-Panlabs (contract screen) 118030
# T13 sequence (P35354 18-604): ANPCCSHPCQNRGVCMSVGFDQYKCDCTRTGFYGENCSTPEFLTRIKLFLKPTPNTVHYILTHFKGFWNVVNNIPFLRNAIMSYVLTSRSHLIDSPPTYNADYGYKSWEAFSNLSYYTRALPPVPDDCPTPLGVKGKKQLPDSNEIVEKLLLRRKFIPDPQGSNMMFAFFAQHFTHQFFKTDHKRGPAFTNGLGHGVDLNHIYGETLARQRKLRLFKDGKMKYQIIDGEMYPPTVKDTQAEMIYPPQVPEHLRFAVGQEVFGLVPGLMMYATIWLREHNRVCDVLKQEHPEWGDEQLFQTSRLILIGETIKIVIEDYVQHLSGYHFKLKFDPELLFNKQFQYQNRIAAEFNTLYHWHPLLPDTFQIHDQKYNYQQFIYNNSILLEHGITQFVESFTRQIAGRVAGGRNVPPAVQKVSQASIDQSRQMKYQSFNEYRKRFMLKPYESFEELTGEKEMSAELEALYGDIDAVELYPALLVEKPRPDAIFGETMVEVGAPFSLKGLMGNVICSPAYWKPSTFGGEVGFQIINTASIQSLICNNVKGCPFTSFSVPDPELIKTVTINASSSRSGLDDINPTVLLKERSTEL
# Experimental: as §1, §2
# hSERT = hSERT (Homo sapiens, UniProt P31645); assay: SERT-mediated cell uptake assay (fluorescence uptake inhibition); type: cell-based
# Sequence of 5-HT1F receptor (P30939 whole entry): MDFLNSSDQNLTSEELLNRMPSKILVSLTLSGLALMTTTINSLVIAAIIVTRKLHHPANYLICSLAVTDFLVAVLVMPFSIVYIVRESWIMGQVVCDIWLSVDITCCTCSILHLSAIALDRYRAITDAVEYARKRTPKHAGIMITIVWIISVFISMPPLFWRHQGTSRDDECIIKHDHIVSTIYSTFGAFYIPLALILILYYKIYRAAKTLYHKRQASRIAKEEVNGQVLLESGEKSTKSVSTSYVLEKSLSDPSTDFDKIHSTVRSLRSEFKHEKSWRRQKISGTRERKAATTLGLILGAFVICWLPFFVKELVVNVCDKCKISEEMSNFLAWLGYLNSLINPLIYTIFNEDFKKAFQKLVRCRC
# Sequence of 5-HT2B (P41595 whole entry): as the sequence (P41595 whole entry) above
smiles,measurement,setting,value
CC[C@@H](N)Cc1cc(OC)c(C)cc1OC [(R)-Ariadne],Emax,5-HT2B,64%
same,EC50,5-HT1F receptor,~5 µM
same,Emax,5-HT1F receptor,> 70%
same,symptoms in subjects with Parkinson's disease,patients; 100 mg per day,nearly complete remission of symptoms
same,psychotic symptoms in schizophrenia and bipolar disorder,patients; 50-100 mg per day,rapid remission of psychotic symptoms
same,hallucinogenic effects,"patients; up to and beyond 100 mg per day, including patients with psychosis",lack of hallucinogenic effects
same,entries and time spent in the open arms,mice,acute anxiogenic-like effect
"CCC(N)Cc1cc(OC)c(C)cc1OC (racemic) [Compound 32, 1-(2,5-dimethoxy-4-methylphenyl)butan-2-amine]",% Response,[1],−13%
same,% Response,[2],−13%
same,% Response,Muscarinic M3,−11%
same,% Response,Adrenergic alpha1A,24%
same,% Response,Phosphodiesterase PDE4D2,−2%
same,% Response,Glucocorticoid,−5%
same,% Response,Androgen (Testosterone),−8%
same,% Response,[3],36%
same,% Response,Muscarinic M1,−4%
same,% Response,[4],12%
same,% Response,Endothelin ETA,−6%
same,% Response,Adrenergic alpha2A,34%
same,% Response,[5],−15%
same,% Response,[6]; listed as (rac)-Ariadne,more than 50%
same,% Response,[6]; listed as Ariadne,72%
same,% Response,Cyclooxygenase COX-2,−2%
same,IC50,hSERT,> 50 µM
